Results reported in patent publication US10875861B1, “Therapeutic compounds” (Rutgers, The State University of New Jersey, priority 2017, dated 2020).
Structures can show the parent of a compound that is named as a salt. Blank lines part the entries; values can stand above or below the molecule they belong to.

Tests used:
BMI-1 and αENaC mRNA = experiment: mRNA expression of BMI-1 and αENaC on concomitant treatment with cyclohexamide; type: cell-based; details: RU-A15 100 nM, RU-A16 200 nM, concomitant with CHX
Description: Next, to test if Examples 3 and 4 are selective for BMI-1 RNA, cells were concomitantly treated with RU-A15/16 (100 nM, 200 nM, respectively) and cyclohexamide (CHX), a general translational inhibitor, and analyzed mRNA expression of BMI-1 and the CHX-specific target epithelial sodium channel (αENaC).

[1] = tested on: glioblastoma cancer cell line; experiment: MTT viability assay with glioblastoma cancer cell line (Test A); type: cell-based, human; details: for EC50: Homo sapiens, 72 hours
From the text: To generate primary patient-derived GBM models for testing small molecule inhibitors, fresh primary tissues were received from patients undergoing surgical resection of WHO grade IV gliomas at Robert Wood Johnson University Hospital (RWJUH) under an approved IRB protocol. De-identified primary human GBM samples were delivered to the laboratory. Cells were obtained through mechanical dissociation of the tumor tissue using a blade and plated in DMEM/F12 medium (Gibco) in the presence of B-27 Supplement (Gibco, #17504-044), 20 ng/ml of human recombinant EGF (Gibco, #PHG0311L) and human recombinant FGF (Peprotech, #AF-100-18B). The following day, the culture was collected, incubated with Accutase (Gibco, #A11105-01) at 37° C. and passed through a 26G×⅜ needle (BD Precision Glide, #305110) to obtain a single cell suspension and re-plated in the same supplemented medium. Cells were cultured at low (5-6) passages in serum-free sphere 3D culture with mitogens that preserve the clonogenic stemness phenotype. […] different primary GBM cells (GBM #46, GBM #50, and GBM #76) were tested for cell viability after treatment with the inhibitors. Cell viability was measured using MTT assay. Briefly, one thousand cells per well were seeded in 96-well plates and exposed to drug in a total of 200 uL media. After 72 hours, 50 uL of stock concentration of 2.5 mg/mL 3-(4,5-dimethylthiazol-2-yl)-2,5-diphenyltetrazolium bromide (MTT) (Sigma, #M2128) dissolved in PBS was added to wells and incubated at 37° C. for 4 hours; read in a […] plate reader at 570 nm and compared to DMSO and untreated cells. The IC50 (defined as the concentration at which 50% of the cells were viable) was determined from the curve.
Accordingly, compounds of the invention may be useful as therapeutic agents for the treatment of cancer.
To generate primary patient-derived GBM models for testing small molecule inhibitors, fresh primary tissues were received from patients undergoing surgical resection of WHO grade IV gliomas at Robert Wood Johnson University Hospital (RWJUH) under an approved RB protocol. De-identified primary human GBM samples were delivered to the laboratory. Cells were obtained through mechanical dissociation of the tumor tissue using a blade and plated in DMEM/F12 medium (Gibco) in the presence of B-27 Supplement (Gibco, #17504-044), 20 ng/ml of human recombinant EGF (Gibco, #PHG0311L) and human recombinant FGF (Peprotech, #AF-100-18B). […] Cell viability was measured using MTT assay. […] After 72 hours, 50 uL of stock concentration of 2.5 mg/mL 3-(4,5-dimethylthiazol-2-yl)-2,5-diphenyltetrazolium bromide (MTT) (Sigma, #M2128) dissolved in PBS was added to wells and incubated at 37° C. for 4 hours; read in a […] plate reader at 570 nm and compared to DMSO and untreated cells. […]

[2] = tested on: BMI-1 and ubiquitinated histone H2A in primary glioblastoma cells; experiment: Modulation / dynamics of BMI-1 and downstream targets in GBM cells (Western blotting); type: cell-based, human
Description: Different GBM cells were treated with DMSO or different concentrations of the B compounds for 72 hours. Cells were lysed in Cell Lysis Buffer (Cell Signaling, #9803) supplemented with Protease Inhibitor Cocktail (Sigma, #P8340), spun down for 30 minutes at 4° C., after which the supernatant was collected at every time point indicated. Western blotting analysis was performed on all samples as described above. BMI-1 loss started at 6-12 h, coinciding with an upper shift and hyper-phosphorylation of BMI-1 at 12-24 h and complete depletion at 72 h.
To study the compound dynamic activity against GBM spheres, GBMs were tested with exemplary compounds. Different GBM cells were treated with DMSO or different concentrations of the inhibitors for 72 hours. Cells were lysed in Cell Lysis Buffer (Cell Signaling, #9803) supplemented with Protease Inhibitor Cocktail (Sigma, #P8340), spun down for 30 minutes at 4° C., after which the supernatant was collected at every time point indicated. Western blotting analysis was performed on all samples as described above. […] BMI-1 loss started at 6-12 h, coinciding with an upper shift and hyper-phosphorylation of BMI-1 at 12-24 h and complete depletion at 72 h. […] This is expected since BMI-1 is known to suppress p21. BMI-1 inhibition could be reversed using phosphatase treatment, moreover, when proteasomal inhibitor is added to treated cells after 24 h, BMI-1 is locked in the phosphorylated state, therefore showing that the phosphorylation event precedes BMI-1 degradation. The phosphorylation was independent of p38 kinase activation, as when we added […], the p38 inhibitor to the cultured cells upon treatment with the BMI-1 inhibitor, the combined treatment could not reverse the effects of RU-A15 on BMI-1 inhibition.

U87 glioblastoma cells = experiment: Comparison of Example 3 and PTC-209 in U87 glioblastoma cells (cell viability); type: cell-based; details: 72 hours
From the text: BMI-1 inhibitors were developed by the Molecular Design and Synthesis laboratory, Rutgers Translational Sciences at Rutgers University, NJ, USA. […] (Generic name is PTC-209) was characterized among a screen for post-transcriptional inhibitors of BMI-1. Zebrafish embryo toxicology assays were used to select RU-A compounds with no embryonic toxicity in vivo (a surrogate assay for toxic effects on normal stem cells). […] Cells were counted using Beckman Coulter Vi-CELL Cell Viability Analyzer, and cell viability was confirmed by CellTiter-Glo Luminescent Cell Viability Assay (Promega, Madison, Wis., USA) according to standard protocols and analyzed with a Victor 2 plate reader (Wallac, Turku, Finland).

BMI-1 5'UTR = experiment: Luciferase plasmid containing the BMI-1 5'UTR with or without binding pocket; type: cell-based
Description: Since translation initiation is dependent on RNA folding, the 3D folding of the BMI-1 5′UTR was examined. To identify sequences that fold into a target minimum and maximum free energy (MFE) secondary structure, inverse RNA folding of the BMI-1 5′UTR was performed using the mFold server. A highly probable, probability annotated group of secondary structures were identified, starting with the MFE, centroid energy structures and including fourteen other probabilities. […] In a luciferase plasmid containing the BMI-1 5′UTR, the sequences of the pocket region that contains the potential binding site was removed by cutting with compatible restriction enzymes and re-ligating the plasmid. The luciferase activity was examined with the luc plasmids or without the binding pocket upon treatment with the inhibitors. […] Thus, RU-A15/A16 engages with the BMI-1 UTR regulatory mechanisms.

[3] = primary glioblastoma cells, Western blotting

Compound: C[C@@H]1C[C@@H]([C@H](O)CC2CC(=O)NC(=O)C2)C(=O)[C@@H](C)C1 [CHX, cyclohexamide, reference compound]
BMI-1 mRNA expression (BMI-1 and αENaC mRNA): lowered mRNA levels | αENaC mRNA expression (BMI-1 and αENaC mRNA): lowered mRNA levels

Compound: Cc1c(-c2csc(Nc3ccc(N(C)C)cc3)n2)nc2ccccn12 [Example B4, N^1,N^1-dimethyl-N^4-(4-(3-methylimidazo[1,2-a]pyridin-2-yl)thiazol-2-yl)benzene-1,4-diamine]
EC80 ([1]; cell marked (EC80) in the EC50 column): 20 (EC80) μM

EC50 [1]: 1 µM
Compound: Cc1c(-c2csc(Nc3ccc(N(C)C)cc3)n2)nc2ncccn12 [Example B2, N^1,N^1-dimethyl-N^4-(4-(3-methylimidazo[1,2-a]pyrimidin-2-yl)thiazol-2-yl)benzene-1,4-diamine]
modulation of ubiquitinated histone H2A (Test B) ([2]; GBM cells, B compounds, 72 hours): modulation of downstream target ubiquitinated histone H2A

IC50 (U87 glioblastoma cells): 10 µM
Compound: COc1cc(Br)c(Nc2nc(-c3c(C)nc4ncccn34)cs2)c(Br)c1 [PTC-209, reference compound]

EC50 [1]: 20 µM
Compound: COc1ccc(Nc2nc(-c3nc4ccccn4c3C)cs2)cc1 [Example B3, N-(4-methoxyphenyl)-4-(3-methylimidazo[1,2-a]pyridin-2-yl)thiazol-2-amine]

normalized luc, BMI-1 5'UTR with intact binding pocket (BMI-1 5'UTR; intact minor groove potential binding pocket): significantly reduced normalized luc
Compound: Cc1nc2ccccn2c1-c1csc(Nc2ccc3c(c2)OCO3)n1 [Example 4, N-(benzo[d][1,3]dioxol-5-yl)-4-(2-methylimidazo[1,2-a]pyridin-3-yl)thiazol-2-amine hydrobromide]
CDK inhibitor p21 ([2]; GBM#46 and #50): induced upregulation of the CDK inhibitor p21 | BMI-1 protein levels [2, 3]: inhibit BMI-1 | WT p53 levels [2, 3]: increase WT p53 levels | ubiquitin H2A [2, 3]: inhibit ubiquitin H2A | BMI-1 mRNA expression (BMI-1 and αENaC mRNA): did not inhibit | αENaC mRNA expression (BMI-1 and αENaC mRNA): did not inhibit | normalized luc, binding pocket sequences removed (BMI-1 5'UTR; pocket sequences removed): not when the pocket sequences were removed
